Measurements reported in publication PMC5922347, “Application of polymersomes engineered to target p32 protein for detection of small breast tumors in mice” (Oncotarget, 2018).
Where “and” joins values, the source holds several entries; their conditions need not be identical. Equal entries are not always repeated.

Experiments:
NRP-1 [1] = molecular target: T1, NRP-1 (Homo sapiens, UniProt O14786); details: unless proteolytically processed by uPA; cited from earlier work
[2] = DLS size and polydispersity of polymersomes; type: physicochemical; details: 3 independent measurements
Description: (§1) DLS and Z-potential measurements (Zetasizer Nano ZS, Malvern Instruments, USA) were used to assess the average size, polydispersity, and surface charge of polymersome preparations. The size was measured at a concentration of 1 mg polymer/mL in PBS (10 mM of phosphate and 137 mM of NaCl). The z-potential was measured at 0.2 mg of polymer/mL in NaCl 10 mM). TEM was used to assess the size and morphology of assembled vesicles. Briefly, polymersomes were deposited from a water solution onto copper grids at 1mg/mL, stained with 0.75% phosphotungstic acid (pH 7), air-dried, and imaged by TEM (Tecnai 10, Philips, Netherlands). The number of polymersomes in the suspension was measured using the ZetaWiew instrument (Particle Metrix GmbH, Germany).

[3] = Z-potential measurement of polymersomes; type: physicochemical; details: 0.2 mg polymer/mL in NaCl 10 mM; 3 independent measurements
Description: as §1

[4] = test system: human recombinant p32 protein; assay: Binding of radiolabeled polymersomes to p32-coated magnetic beads; details: p32-coated Ni-NTA magnetic beads, 1 h, room temperature, 1% BSA, gamma counter, N=3
Description: Recombinant hexahistidine–tagged p32 was bacterially expressed and purified as previously described. For protein binding assays, Ni-NTA magnetic agarose beads (Qiagen, Germany) in binding buffer (50 mM Tris pH 7.4, 150 mM NaCl, 5mM imidazole) were coated with p32 protein at 15 μg of protein/10μL beads. Radiolabeled polymersomes were incubated with the p32-coated beads in binding buffer containing 1% BSA at room temperature for 1 h. The magnetic beads were washed with binding buffer and resuspended in a final volume of 1mL of binding buffer. The radioactivity of each sample was quantified by automatic gamma counter (2470 Wizard 2, Perkin Elmer).

NRP-1 [5] = molecular target: T1, NRP-1; assay: Binding of radiolabeled polymersomes to NRP1-coated magnetic beads; details: 1 h incubation, gamma counter, N=3
[6] = test system: orthotopic 4T1 breast tumors; assay: In vivo PET-CT imaging of radiolabeled polymersomes in 4T1 tumor mice; parameters: species or system Balb/c mice
Description: (§2) For tumor induction, 1 million 4T1 cells in 50μL of PBS were orthotopically implanted in the mammary gland of Balb/c mice (Charles River Laboratories, Spain). After 3 days, when the tumor volume had reached ∼18 mm^3, the mice were injected in tail vein with 3.7-7.4MBq of radiolabeled polymersomes (1mg polymer, 100 μL, N=5 mice) and subjected to PET-CT scans. During the scan acquisitions the mice were kept anesthetized with 1.5−2% isofluorane blended with O2. The PET-CT scans were performed at 10 min, 2, 6, 12, 24, and 48 h using the Argus PET-CT scanner (Sedecal, Molecular Imaging, Spain). First, PET scans were acquired using the following acquisition protocol: whole body emission scan, 2 beds, 10 min of total acquisition time for the scans at 10 min, 2, 6, 12, and 24 h post-injection and 20 min for the 48 h time point. The acquisition method was static, using 400-700KeV energetic window, FBP reconstruction algorithm, with correction for scatter coincidences. For the CT scans the used current was 140μA, 40kV of voltage, rotation of 360 degrees, 4 shoots, 1 bed, acquisition time of 6 min, and a reconstruction binning of 2. After 48 h of radiolabeled polymersome injection the mice were sacrificed and the tumor, blood, and organs were excised and further used for biodistribution studies. The PET-CT images were processed with the Medical Image Data Examiner AMIDE software. The CT and PET images were overlaid, the tumor volume was manually extracted from the CT scans and the same ROI was applied in the PET images, averaged, and expressed as percentage of injected dose per cubic centimeter of tissue (ID/cc). For the rendered 3D PET-CT images, PMOD image analysis software (PMOD Technologies Ltd, Zürich, Switzerland) was used. A 3D Gauss Filter of 1.5x1.5x1.5mm was applied to the PET image in order to increase the signal to noise ratio for 3D visualization.

[7] = test system: orthotopic 4T1 breast tumors; assay: Ex vivo biodistribution by gamma counter in 4T1 tumor mice; parameters: species or system Balb/c mice; details: for Increase in tumor accumulation by LinTT1 functionalization: versus untargeted polymersomes, 48 h, % ID/g
Description: as §2
(§3) For biodistribution studies, the tumor, blood, and organs were weighed and the radioactivity was measured using the automatic gamma counter. A standard curve was generated using ^124I to determine the relationship between cpm and Bq. The biodistribution was expressed as percentage of injected dose per gram of tissue (ID/g). To determine the elimination rate of polymersomes, the radioactive signal in the whole mouse body was measured from the PET images at 10 min, 2, 6, 12, 24, and 48 h post-injection and normalized by the signal at 10 min post-injection. The elimination rate was expressed as signal in mouse x 100 divided by the signal at time zero.

[8] = Elimination rate of 124I from whole-body PET signal; parameters: species or system Balb/c mice; details: mouse, in vivo
Description: as §3

[9] = 48 h after i.v. injection, gamma counter

T1 sequence (O14786 22-923): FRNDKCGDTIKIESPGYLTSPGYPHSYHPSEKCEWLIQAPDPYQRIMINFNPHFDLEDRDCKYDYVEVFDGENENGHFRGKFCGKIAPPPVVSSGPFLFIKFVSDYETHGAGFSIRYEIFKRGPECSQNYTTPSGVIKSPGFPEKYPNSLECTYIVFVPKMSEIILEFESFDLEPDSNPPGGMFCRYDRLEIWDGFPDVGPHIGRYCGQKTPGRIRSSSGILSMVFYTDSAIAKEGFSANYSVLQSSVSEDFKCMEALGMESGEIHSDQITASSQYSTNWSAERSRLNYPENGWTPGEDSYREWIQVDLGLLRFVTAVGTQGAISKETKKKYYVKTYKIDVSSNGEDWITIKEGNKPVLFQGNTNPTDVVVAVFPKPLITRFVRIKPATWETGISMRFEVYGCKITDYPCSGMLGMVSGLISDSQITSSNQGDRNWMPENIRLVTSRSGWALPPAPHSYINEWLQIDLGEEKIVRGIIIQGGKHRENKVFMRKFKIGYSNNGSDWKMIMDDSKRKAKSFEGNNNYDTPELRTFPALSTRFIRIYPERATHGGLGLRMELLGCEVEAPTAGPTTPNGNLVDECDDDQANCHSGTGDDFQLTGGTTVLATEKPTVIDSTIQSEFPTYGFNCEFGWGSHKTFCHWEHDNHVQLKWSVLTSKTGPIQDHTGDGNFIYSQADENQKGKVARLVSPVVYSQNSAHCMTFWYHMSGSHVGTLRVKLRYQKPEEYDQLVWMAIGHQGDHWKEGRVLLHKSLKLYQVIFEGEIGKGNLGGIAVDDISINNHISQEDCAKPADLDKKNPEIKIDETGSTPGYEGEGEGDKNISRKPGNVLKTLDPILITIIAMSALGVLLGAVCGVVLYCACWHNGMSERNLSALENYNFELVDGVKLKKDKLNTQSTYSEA

Substance: AKRGARSTA [LinTT1]
- Binding of the peptide to NRP-1 (NRP-1 [1]): does not bind

Substance: Cys-Tyr-Ahx-LinTT1 [LinTT1-Tyr-PS, PEG-PCL polymersomes functionalized with Cys-Tyr-Ahx-LinTT1 peptide]
- Pdi ([2]; 1 mg polymer/mL in PBS): 0.15
- Size (hydrodynamic diameter) ([2]; intensity distribution, 1 mg polymer/mL in PBS (10 mM phosphate, 137 mM NaCl)): ~130 nm and 124 ± 62 nm
- Z-pot [3]: -0.1 ± 4 mV

Substance: Cys-Tyr-Ahx-LinTT1 [LinTT1-Tyr-^124I-PS, 124I-radiolabeled PEG-PCL polymersomes functionalized with Cys-Tyr-Ahx-LinTT1 peptide]
- Increase in binding to p32 beads compared to non-targeted polymersomes [4]: ~10 fold
- Binding to NRP-1 (NRP-1 [5]): did not bind
- AUC in tumor, increase over non-targeted polymersomes ([6]; AUC of % ID/cc tumor versus time, 10 min to 48 h, N=5 mice): ~60%
- Tumor accumulation at 48 h ([6]; PET quantification, 48 h after i.v. injection, N=5 mice, SEM): 12±0.9 ID/cc
- Tumor accumulation at 24 h, increase over untargeted polymersomes ([6]; PET, 24 h after injection, N=5 mice): 67%
- Accumulation in tumor at 24 h ([6]; i.v., 1 mg polymer, tumors ~20 mm^3, 24 h after administration, PET quantification): up to 20 % ID/cc
- Tumor accumulation (no time stated) ([6]; i.v., PET quantification, discussion statement): > 20 % ID/cc
- Accumulation in sentinel lymph node relative to Tyr-124I-PS [7, 9]: more than 2 fold
- Ratio of % ID/g in tumor to liver [7, 9]: 2.5 times
- Accumulation in tumors at 48 h ([7]; excised tumors, gamma counter, 48 h after i.v. injection, N=6, SEM): 26±3 % ID/g
- Increase in tumor accumulation by LinTT1 functionalization [7]: > 70%
- Increase in tumor accumulation by LinTT1 functionalization ([7]; listed as LinTT1-polymersomes): about 70%
- Injected polymersomes (124I) remaining in the body after 48 h [8]: 45%
- Injected polymersomes (124I) remaining in the body at 24 h [8]: 67%
